These results are taken from patent publication US20230416245A1, “ADENOSINE ANALOGS FOR THE TREATMENT OF DISEASE” (BIOINTERVENE, INC., priority 2020, published 2023).

As usually defined, the EC50 is the midpoint of the concentration-response curve.

The target of this test is ADORA3 (Homo sapiens (Human), UniProt P0DMS8). The test can be described thus: Intracellular calcium release assay (FLIPR). The format is cell-based. The note with it: for EC50: CHO-K1 cells, Fluo-4, top concentration 10 μM, read-out: Cell Calcium Assay EC50; for Cell Calcium Efficacy (%): percentage of the response to NECA. In short, it runs like this: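 Cells stably expressing ADORA3 (20,000/well, 16–20 h) were loaded with Fluo-4 Direct plus 2.5 mM probenecid for 50 min at 37 °C and 10 min at RT. Compounds (10-point, 3-fold series) were added on FLIPR and the Max–Min fluorescence taken. Activation % was set against high-agonist and DMSO wells, with variable-slope EC50 and efficacy relative to NECA.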
For orientation: A change in cytosolic calcium serves as a functional read-out for many receptors and channels.

ADORA3, sequence (P0DMS8 whole entry): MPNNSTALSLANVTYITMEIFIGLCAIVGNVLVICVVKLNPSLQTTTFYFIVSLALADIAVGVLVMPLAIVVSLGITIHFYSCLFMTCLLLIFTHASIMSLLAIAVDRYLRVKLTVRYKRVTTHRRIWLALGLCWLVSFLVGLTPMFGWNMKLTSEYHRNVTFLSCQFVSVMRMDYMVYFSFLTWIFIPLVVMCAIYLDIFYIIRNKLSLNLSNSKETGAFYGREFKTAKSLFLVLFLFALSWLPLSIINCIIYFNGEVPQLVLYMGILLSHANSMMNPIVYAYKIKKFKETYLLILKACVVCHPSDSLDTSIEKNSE

For `Cc1c(Cl)nc2c(ncn2[C@H]2[C@H](O)[C@H](O)[C@@H]3C[C@@H]32)c1NCC(F)F` [Compound 60, (1R,2R,3S,4R,5S)-4-(5-chloro-7-((2,2-difluoroethyl)amino)-6-methyl-3H-imidazo[4,5-b]pyridin-3-yl)bicyclo[3.1.0]hexane-2,3-diol], the EC50 was over 10000 nM and the “Cell Calcium Efficacy (%)” value was 10%.
In the same order, the values of `CCNc1cc(C#CC2CC2)nc2c1ncn2[C@H]1[C@H](O)[C@H](O)[C@@H]2C[C@@H]21` [Compound 46, (1R,2R,3S,4R,5S)-4-(5-(cyclopropylethynyl)-7-(ethylamino)-3H-imidazo[4,5-b]pyridin-3-yl)bicyclo[3.1.0]hexane-2,3-diol] are at least 10000 nM and 4.8%.
On to `O[C@@H]1[C@H](O)[C@@H]2C[C@@H]2[C@H]1n1cnc2c(NCC(F)F)nc(Cl)nc21` [Compound 35, (1R,2R,3S,4R,5S)-4-(2-chloro-6-((2,2-difluoroethyl)amino)-9H-purin-9-yl)bicyclo[3.1.0]hexane-2,3-diol], for which the EC50 is 4.7 nM and the “Cell Calcium Efficacy (%)” value is on record as 46.8%.
As for `O[C@@H]1[C@H](O)[C@@H]2C[C@@H]2[C@H]1n1cnc2c(NCC(F)F)cc(Cl)nc21` [Compound 40, (1R,2R,3S,4R,5S)-4-(5-chloro-7-((2,2-difluoroethyl)amino)-3H-imidazo[4,5-b]pyridin-3-yl)bicyclo[3.1.0]hexane-2,3-diol], the EC50 was 6.1 nM and the “Cell Calcium Efficacy (%)” value stood at 55.9%.
